# Source: ChEMBL document CHEMBL5634155, “Design and synthesis of pyrazole derivatives against neutrophilic inflammation” (Eur J Med Chem, 2023)
# Activity calls are given as the source filed them. The rule behind the calls is not given here.
# Tested on: Neutrophil
# Assay: Inhibition of fMLF/CB-induced human Neutrophil activation assessed as reduction in superoxide anion generation preincubated with compound for 2 mins prior to CB induction for 3 mins followed by fMLF addition by spectrophotometric analysis
# Assay type: functional, cell-based
# Conditions: not given
row,IC50 [µM],Compound
1,4.69,Fc1ccccc1Cn1nc(-c2ccccc2)cc1-c1ccccc1
2,> 10,c1ccc(-c2cc(-c3ccccc3)n(CC3CCCCC3)n2)cc1
3,> 10,OC(c1ccc(-c2nn(Cc3ccccc3F)c3ccccc23)o1)C(F)(F)F (stereo not given)
4,> 10,OCc1ccc(-c2nn(Cc3ccccc3)c3ccccc23)o1
5,> 10,O=Cc1ccc(-c2nn(C(=O)c3ccccc3)c3ccccc23)o1
6,2.32,c1ccc(Cn2nc(-c3ccco3)c3ccccc32)cc1
7,1.47,Brc1ccccc1Cn1nc(-c2ccco2)c2ccccc21
8,0.71,O=Cc1ccc(-c2nn(Cc3ccccc3F)c3ccccc23)o1
9,0.17,O=Cc1ccc(-c2nn(CC3CCCCC3)c3ccccc23)o1
10,0.0745,c1ccc(Cn2nc(-c3cccs3)cc2-c2ccccc2)cc1
11,1.76,COc1cccc(Cn2nc(-c3cccs3)cc2-c2ccccc2)c1
12,> 10,Fc1cccc(Cn2nc(-c3ccccc3)cc2-c2ccccc2)c1
13,0.18,CCC(=O)c1ccc(-c2nn(Cc3ccccc3F)c3ccccc23)o1
14,0.0133,Fc1ccccc1Cn1nc(-c2cccs2)cc1-c1ccccc1
15,0.34,O=C(c1ccccc1F)n1nc(-c2ccco2)c2ccccc21
16,> 10,c1ccc(-c2cc(-c3cccs3)nn2CC2CCCCC2)cc1

# Tested on: Neutrophil
# Assay: Inhibition of fMLF/CB-induced human Neutrophil activation assessed as reduction in elastase release using MeO-Suc-Ala-Ala-Pro-Val-pnitroanilide as substrate incubated for 5 mins
# Assay type: functional, cell-based
# Conditions: not given
row,IC50 [µM],Compound
1,> 10,Fc1ccccc1Cn1nc(-c2ccccc2)cc1-c1ccccc1
2,> 10,c1ccc(-c2cc(-c3ccccc3)n(CC3CCCCC3)n2)cc1
3,> 10,OC(c1ccc(-c2nn(Cc3ccccc3F)c3ccccc23)o1)C(F)(F)F (stereo not given)
4,> 10,OCc1ccc(-c2nn(Cc3ccccc3)c3ccccc23)o1
5,> 10,O=Cc1ccc(-c2nn(C(=O)c3ccccc3)c3ccccc23)o1
6,> 10,c1ccc(Cn2nc(-c3ccco3)c3ccccc32)cc1
7,4.84,Brc1ccccc1Cn1nc(-c2ccco2)c2ccccc21
8,5.27,O=Cc1ccc(-c2nn(Cc3ccccc3F)c3ccccc23)o1
9,1.18,O=Cc1ccc(-c2nn(CC3CCCCC3)c3ccccc23)o1
10,> 10,c1ccc(Cn2nc(-c3cccs3)cc2-c2ccccc2)cc1
11,> 10,COc1cccc(Cn2nc(-c3cccs3)cc2-c2ccccc2)c1
12,> 10,Fc1cccc(Cn2nc(-c3ccccc3)cc2-c2ccccc2)c1
13,2.54,CCC(=O)c1ccc(-c2nn(Cc3ccccc3F)c3ccccc23)o1
14,> 10,Fc1ccccc1Cn1nc(-c2cccs2)cc1-c1ccccc1
15,> 10,O=C(c1ccccc1F)n1nc(-c2ccco2)c2ccccc21
16,> 10,c1ccc(-c2cc(-c3cccs3)nn2CC2CCCCC2)cc1

# Tested on: Neutrophil
# Assay: Inhibition of fMLF/CB-induced human Neutrophil activation assessed as reduction in superoxide anion generation at 10 uM preincubated with compound for 2 mins prior to CB induction for 3 mins followed by fMLF addition by spectrophotometric analysis relative to control
# Assay type: functional
# Conditions: 5 min
row,Compound,inhibition at 10 µM [%]
1,Fc1ccccc1Cn1nc(-c2ccccc2)cc1-c1ccccc1,61.8
2,c1ccc(-c2cc(-c3ccccc3)n(CC3CCCCC3)n2)cc1,40.8
3,OC(c1ccc(-c2nn(Cc3ccccc3F)c3ccccc23)o1)C(F)(F)F (stereo not given),35.7
4,OCc1ccc(-c2nn(Cc3ccccc3)c3ccccc23)o1,12.9
5,O=Cc1ccc(-c2nn(C(=O)c3ccccc3)c3ccccc23)o1,10.1
6,c1ccc(Cn2nc(-c3ccco3)c3ccccc32)cc1,71.8
7,Brc1ccccc1Cn1nc(-c2ccco2)c2ccccc21,93.1
8,O=Cc1ccc(-c2nn(Cc3ccccc3F)c3ccccc23)o1,78.2
9,O=Cc1ccc(-c2nn(CC3CCCCC3)c3ccccc23)o1,63.4
10,c1ccc(Cn2nc(-c3cccs3)cc2-c2ccccc2)cc1,70
11,COc1cccc(Cn2nc(-c3cccs3)cc2-c2ccccc2)c1,63.3
12,Fc1cccc(Cn2nc(-c3ccccc3)cc2-c2ccccc2)c1,48.3
13,CCC(=O)c1ccc(-c2nn(Cc3ccccc3F)c3ccccc23)o1,106
14,Fc1ccccc1Cn1nc(-c2cccs2)cc1-c1ccccc1,72.2
15,O=C(c1ccccc1F)n1nc(-c2ccco2)c2ccccc21,69.5
16,c1ccc(-c2cc(-c3cccs3)nn2CC2CCCCC2)cc1,39

# Tested on: not listed separately
# Assay: Apparent volume of distribution in C57BL/6 mouse at 5 mg/kg, iv measured upto 360 mins by HPLC analysis
# Assay type: ADME, organism-based
# Conditions: in vivo, 6 h
row,Vz [mL],Compound
1,165,Fc1ccccc1Cn1nc(-c2cccs2)cc1-c1ccccc1

# Tested on: not listed separately
# Assay: Half life in C57BL/6 mouse at 5 mg/kg, iv measured upto 360 mins by HPLC analysis
# Assay type: ADME, organism-based
# Conditions: in vivo
row,half-life [h],Compound
1,1.03,Fc1ccccc1Cn1nc(-c2cccs2)cc1-c1ccccc1

# Biological target: Phosphodiesterase 4 (Homo sapiens) (UniProt P27815+Q08499+Q07343+Q08493)
# Assay: Inhibition of PDE4 (unknown origin) at 50 uM incubated for 1 hr by scintillation proximity assay relative to control
# Assay type: protein assay
# Conditions: not given
row,inhibition [%],Compound
1,60,OCc1ccc(-c2nn(Cc3ccccc3)c3ccccc23)o1

# Tested on: Neutrophil
# Assay: Inhibition of fMLF/CB-induced human Neutrophil activation assessed as reduction in elastase release at 10 uM using MeO-Suc-Ala-Ala-Pro-Val-pnitroanilide as substrate incubated for 5 mins relative to control
# Assay type: functional
# Conditions: not given
row,Compound,inhibition at 10 µM [%]
1,Fc1ccccc1Cn1nc(-c2ccccc2)cc1-c1ccccc1,35
2,c1ccc(-c2cc(-c3ccccc3)n(CC3CCCCC3)n2)cc1,8.16
3,OC(c1ccc(-c2nn(Cc3ccccc3F)c3ccccc23)o1)C(F)(F)F (stereo not given),10.3
4,OCc1ccc(-c2nn(Cc3ccccc3)c3ccccc23)o1,-2.64
5,O=Cc1ccc(-c2nn(C(=O)c3ccccc3)c3ccccc23)o1,18.1
6,c1ccc(Cn2nc(-c3ccco3)c3ccccc32)cc1,20.4
7,Brc1ccccc1Cn1nc(-c2ccco2)c2ccccc21,78
8,O=Cc1ccc(-c2nn(Cc3ccccc3F)c3ccccc23)o1,84.7
9,O=Cc1ccc(-c2nn(CC3CCCCC3)c3ccccc23)o1,102
10,c1ccc(Cn2nc(-c3cccs3)cc2-c2ccccc2)cc1,39.1
11,COc1cccc(Cn2nc(-c3cccs3)cc2-c2ccccc2)c1,32.8
12,Fc1cccc(Cn2nc(-c3ccccc3)cc2-c2ccccc2)c1,17.6
13,CCC(=O)c1ccc(-c2nn(Cc3ccccc3F)c3ccccc23)o1,93.4
14,Fc1ccccc1Cn1nc(-c2cccs2)cc1-c1ccccc1,38.2
15,O=C(c1ccccc1F)n1nc(-c2ccco2)c2ccccc21,-9.57
16,c1ccc(-c2cc(-c3cccs3)nn2CC2CCCCC2)cc1,15.2

# Tested on: not listed separately
# Assay: AUC (0 to infinity) in C57BL/6 mouse at 5 mg/kg, iv measured upto 360 mins by HPLC analysis
# Assay type: ADME, organism-based
# Conditions: in vivo
row,AUC(0-inf) [µg·h/mL],Compound
1,0.9,Fc1ccccc1Cn1nc(-c2cccs2)cc1-c1ccccc1

# Tested on: not listed separately
# Assay: Clearance in C57BL/6 mouse at 5 mg/kg, iv measured upto 360 mins by HPLC analysis
# Assay type: ADME, organism-based
# Conditions: in vivo
row,clearance [mL/min],Compound
1,1.85,Fc1ccccc1Cn1nc(-c2cccs2)cc1-c1ccccc1

# Tested on: Neutrophil
# Assay: Inhibition of fMLF/CB-induced human Neutrophil activation assessed as reduction in superoxide anion generation at 1 to 1000 nM preincubated with compound for 2 mins prior to CB induction for 3 mins followed by fMLF addition in presence of KT5720 by spectrophotometric analysis
# Assay type: functional, cell-based
# Conditions: dose 1-1000 nM, time 5.0 min
row,Compound,inhibition
1,Fc1ccccc1Cn1nc(-c2cccs2)cc1-c1ccccc1,Active
